The text below walks through data of US5981558A, “DC107 derivatives” (Kyowa Hakko Kogyo Co., Ltd., priority 1996, dated 1999).

For orientation: IC50 means the point on the concentration scale where inhibition reaches its midpoint.

The first assay deals with HeLa S3 cells. In words: HeLa S3 Cell Growth Inhibition Test. In kind it is cell-based. Conditions: HeLa S3; 72 hours incubation; Neutral Red; read-out: IC50, HeLa S3 cell growth inhibition. The procedure: In each well of a 96-well microtiter plate was placed 0.1 mL of HeLa S3 cells having a concentration of 8×10^3 cells/mL and prepared in an MEM culture medium containing 10% fetal bovine serum and 2 mM glutamine. After the cells were incubated overnight at 37° C. in a carbon dioxide incubator, a test compound suitably diluted with a medium was added to the wells in an amount of 0.05 mL for each well. The cells were incubated at 37° C. for 72 hours in a carbon dioxide incubator. After the culture supernatant was removed, 0.1 mL of a culture medium containing 0.02% Neutral Red was added to each well. The cells were then incubated at 37° C. for 1 hour in a carbon dioxide incubator to dye the cells. After the culture supernatant was removed, each residue was rinsed once with physiological saline and the pigment was extracted with 0.001 N hydrochloric acid/30% ethanol. The absorbance at 550 nm of each extract was measured with a microplate reader. The drug concentration required for the 50% inhibition of cell growth, which is referred to as IC50, was calculated by comparing the absorbance for untreated cells with those for cells treated with the drug in known concentrations.
Consider `COC(=O)[C@H](CCC(=O)OCSC(=O)C(C)(O)C12CC/C(C)=C/C(OC3CCCCO3)C(=O)/C=C/C=C\c3csc(n3)C(C)N(C(=O)C1)[S+]2[O-])NC(=O)[C@@]12O[C@@H](CO)[C@@H](O)[C@@H]1OC(C)(C)O2` (single isomer, unassigned) [Compound 65], for which the IC50 turned out to be 3.1 nM.
Same read-out and setting: the value for `COC(=O)NCC(=O)OCSC(=O)C(C)(O)C12CC/C(C)=C/C(OC3CCCCO3)C(=O)/C=C/C=C\c3csc(n3)C(C)N(C(=O)C1)[S+]2[O-]` (single isomer, unassigned) [Compound 42] was 47 nM.

The same assay, now with this note: Homo sapiens, HeLa S3, 72 h, HeLa S3; 72 hours incubation; Neutral Red; read-out: IC50, HeLa S3 cell growth inhibition.
On to `C=C(CSC(=O)C(C)(O)C12CC/C(C)=C/C(OC3(OC)CCOCC3)C(=O)/C=C/C=C\c3csc(n3)C(C)N(C(=O)C1)[S+]2[O-])C(=O)OC` (centres unmarked) [Compound 113], for which the concentration for half-maximal inhibition (IC50) turned out to be 42 nM.
With `COc1ccc(COCC(=O)OCSC(=O)C(C)(O)C23CCC(C)=CC(O)C(=O)C=CC=Cc4csc(n4)C(C)N(C(=O)C2)[S+]3[O-])cc1` (centres unmarked) [Compound 13], the half-maximal inhibitory concentration (IC50) is 11 nM.
Same read-out and setting: the value for `CC(=O)OCc1oc(=O)oc1CSC(=O)C(C)(O)C12CC/C(C)=C/C(OC3CCCCO3)C(=O)/C=C/C=C\c3csc(n3)C(C)N(C(=O)C1)[S+]2[O-]` (centres unmarked) [Compound 91] was 51 nM; that for `COCCOCCOCC(=O)OCc1oc(=O)oc1CSC(=O)C(C)(O)C12CC/C(C)=C/C(OC3(OC)CCOCC3)C(=O)/C=C/C=C\c3csc(n3)C(C)N(C(=O)C1)[S+]2[O-]` (centres unmarked) [Compound 103] was 26 nM.
On the same count and under the same terms, the value for `C=C(CSC(=O)C(C)(O)C12CC/C(C)=C/C(OC3(OC)CCOCC3)C(=O)/C=C/C=C\c3csc(n3)C(C)N(C(=O)C1)[S+]2[O-])C(=O)O` (centres unmarked) [Compound 116] was 8500 nM; that for `CC1=C(CSC(=O)C(C)(O)C23CC/C(C)=C/C(O)C(=O)/C=C/C=C\c4csc(n4)C(C)N(C(=O)C2)[S+]3[O-])C(=O)OC2(CCOCC2)O1` (centres unmarked) [Compound 124] was 960 nM; that for `CC1=CC(O)C(=O)C=CC=Cc2csc(n2)C(C)N2C(=O)CC(C(C)(O)C(=O)SCOC(=O)CNC(=O)[C@@]34O[C@H]5COC(C)(C)O[C@H]5[C@@H]3OC(C)(C)O4)(CC1)[S+]2[O-]` (some centres unmarked) [Compound 19] was 57 nM.
The same measure, in the same setting: the value for `CC(=O)Oc1ccc(CCCC(=O)OCSC(=O)C(C)(O)C23CCC(C)=CC(O)C(=O)C=CC=Cc4csc(n4)C(C)N(C(=O)C2)[S+]3[O-])cc1` (centres unmarked) [Compound 33] was 11 nM.
Take `CCC/C=C(\CSC(=O)C(C)(O)C12CC/C(C)=C/C(OC3(OC)CCOCC3)C(=O)/C=C/C=C\c3csc(n3)C(C)N(C(=O)C1)[S+]2[O-])C(=O)OC` (centres unmarked) [Compound 119]: the IC50 was determined as 870 nM.

The same assay, now with this note: Homo sapiens, HeLa S3, 72 h, footnote *: Value after 72 hours of drug treatment; read-out: IC50, HeLa S3 cell growth inhibition.
As to `CC1=CC(O)C(=O)C=CC=Cc2csc(n2)C(C)N2C(=O)CC(C(C)(O)C(=O)SCOC(=O)c3ccc(C(=O)O)cc3)(CC1)[S+]2[O-]` (centres unmarked) [Compound 9], the IC50 was 150 nM.

Staying with this assay, now noted: Homo sapiens, HeLa S3, 72 h, read-out: IC50, HeLa S3 cell growth inhibition, HeLa S3; 72 hours incubation; Neutral Red.
As for `C/C1=C\C(OC2CCCCO2)C(=O)/C=C/C=C\c2csc(n2)C(C)N2C(=O)CC(C(C)(O)C(=O)SCc3oc(=O)oc3COC(=O)Oc3ccc([N+](=O)[O-])cc3)(CC1)[S+]2[O-]` (centres unmarked) [Compound 107], the IC50 was determined as 21 nM.
The same measure, in the same setting: in the case of `CC(=O)Oc1cccc(C(=O)OCSC(=O)C(C)(O)C23CCC(C)=CC(O)C(=O)C=CC=Cc4csc(n4)C(C)N(C(=O)C2)[S+]3[O-])c1` (centres unmarked) [Compound 31] it was 6.2 nM; in that of `C/C1=C\C(OC2CCCCO2)C(=O)/C=C/C=C\c2csc(n2)C(C)N2C(=O)CC(C(C)(O)C(=O)SCOC(=O)c3ccc(O)cc3)(CC1)[S+]2[O-]` (centres unmarked) [Compound 68], 35 nM; in that of `COC(=O)Nc1cccc(C(=O)OCSC(=O)C(C)(O)C23CC/C(C)=C/C(OC4CCCCO4)C(=O)/C=C/C=C\c4csc(n4)C(C)N(C(=O)C2)[S+]3[O-])c1` (centres unmarked) [Compound 57], 36 nM.
Still for that read-out and setting: the value for `COC(=O)N[C@@H](CCC(=O)OCSC(=O)C(C)(O)C12CCC(C)=CC(O)C(=O)C=CC=Cc3csc(n3)C(C)N(C(=O)C1)[S+]2[O-])C(=O)OC` (some centres unmarked) [Compound 23] was 58 nM; that for `C/C1=C\C(O)C(=O)/C=C/C=C\c2csc(n2)C(C)N2C(=O)CC(C(C)(O)C(=O)SCOC(=O)c3ccc(O)cc3)(CC1)[S+]2[O-]` (centres unmarked) [Compound 67] was 50 nM.
On the same count and under the same terms, the value for `C/C1=C\C(O)C(=O)/C=C/C=C\c2csc(n2)C(C)N2C(=O)CC(C(C)(O)C(=O)SCOC(=O)CCNC(=O)[C@@]34O[C@@H](CO)[C@@H](O)[C@@H]3OC(C)(C)O4)(CC1)[S+]2[O-]` (some centres unmarked) [Compound 59] was 1300 nM; that for `COC(=O)Nc1cccc(C(=O)OCSC(=O)C(C)(O)C23CC/C(C)=C/C(OC4(OC)CCOCC4)C(=O)/C=C/C=C\c4csc(n4)C(C)N(C(=O)C2)[S+]3[O-])c1` (centres unmarked) [Compound 58] was 38 nM; that for `C/C1=C\C(OC2CCCCO2)C(=O)/C=C/C=C\c2csc(n2)C(C)N2C(=O)CC(C(C)(O)C(=O)SCc3oc(=O)oc3COC(=O)c3cccnc3)(CC1)[S+]2[O-]` (centres unmarked) [Compound 93] was 9.2 nM.
Turning to `COC(=O)CCCCC(=O)OCSC(=O)C(C)(O)C12CCC(C)=CC(O)C(=O)C=CC=Cc3csc(n3)C(C)N(C(=O)C1)[S+]2[O-]` (centres unmarked) [Compound 2], the IC50 came out at 7.5 nM.
Regarding `C/C1=C\C(OC2CCCCO2)C(=O)/C=C/C=C\c2csc(n2)C(C)N2C(=O)CC(C(C)(O)C(=O)SCc3oc(=O)oc3COC(=O)CCC(=O)O)(CC1)[S+]2[O-]` (centres unmarked) [Compound 95], the half-maximal inhibitory concentration (IC50) came to 27 nM.
Still for that read-out and setting: in the case of `C/C1=C\C(O)C(=O)/C=C/C=C\c2csc(n2)C(C)N2C(=O)CC(C(C)(O)C(=O)SCc3oc(=O)oc3COC(=O)C(C)(C)NC(=O)OC(C)(C)C)(CC1)[S+]2[O-]` (centres unmarked) [Compound 96] it was 29 nM; in that of `C/C1=C\C(OC2CCCCO2)C(=O)/C=C/C=C\c2csc(n2)C(C)N2C(=O)CC(C(C)(O)C(=O)SCc3oc(=O)oc3COC(=O)N3CCN(C)CC3)(CC1)[S+]2[O-]` (centres unmarked) [Compound 109], 52 nM.
On the same count and under the same terms, the value for `CCC/C=C(\CSC(=O)C(C)(O)C12CC/C(C)=C/C(O)C(=O)/C=C/C=C\c3csc(n3)C(C)N(C(=O)C1)[S+]2[O-])C(=O)OC` (centres unmarked) [Compound 118] was 580 nM; that for `C/C1=C\C(OC2CCCCO2)C(=O)/C=C/C=C\c2csc(n2)C(C)N2C(=O)CC(C(C)(O)C(=O)SCOC(=O)CCNC(=O)[C@@]34O[C@H]5COC(C)(C)O[C@H]5[C@@H]3OC(C)(C)O4)(CC1)[S+]2[O-]` (some centres unmarked) [Compound 44] was 8.6 nM.

The assay is the same for the next values; noted with them: Homo sapiens; HeLa S3; 72 hours incubation; Neutral Red; read-out: IC50, HeLa S3 cell growth inhibition.
For the molecule `CCOC(=O)N1CCC2(CC1)OC(=O)C(CSC(=O)C(C)(O)C13CC/C(C)=C/C(O)C(=O)/C=C/C=C\c4csc(n4)C(C)N(C(=O)C1)[S+]3[O-])=C(C)O2` (centres unmarked) [Compound 126], the half-maximal inhibitory concentration (IC50) was 5500 nM.
Same read-out and setting: in the case of `C/C1=C\C(OC2CCCCO2)C(=O)/C=C/C=C\c2csc(n2)C(C)N2C(=O)CC(C(C)(O)C(=O)SCOC(=O)c3ccc(OP(=O)(O)O)cc3)(CC1)[S+]2[O-]` (centres unmarked) [Compound 72] it was 650 nM; in that of `CC[Si](CC)(CC)OCc1oc(=O)oc1CSC(=O)C(C)(O)C12CC/C(C)=C/C(O)C(=O)/C=C/C=C\c3csc(n3)C(C)N(C(=O)C1)[S+]2[O-]` (centres unmarked) [Compound 75], 240 nM.
Consider `C/C1=C\C(OC2CCCCO2)C(=O)/C=C/C=C\c2csc(n2)C(C)N2C(=O)CC(C(C)(O)C(=O)SCOC(=O)c3cccc(OP(=O)(O)O)c3)(CC1)[S+]2[O-]` (centres unmarked) [Compound 73], for which the IC50 turned out to be 1900 nM.

The assay is the same for the next values; noted with them: read-out: IC50, HeLa S3 cell growth inhibition; HeLa S3; 72 hours incubation; Neutral Red.
Take `C/C1=C\C(OC2CCCCO2)C(=O)/C=C/C=C\c2csc(n2)C(C)N2C(=O)CC(C(C)(O)C(=O)SCOC(=O)CNC(=O)[C@@]34O[C@@H](CO)[C@@H](O)[C@@H]3OC(C)(C)O4)(CC1)[S+]2[O-]` (single isomer, unassigned) [Compound 63]: the IC50 came out at 270 nM.
